Consider 1 compound from ChEMBL document CHEMBL1275422, “Cerebrospinal fluid compartmental pharmacokinetics of amikacin in neonates” (Antimicrob Agents Chemother, 2008).

A short description of data set [1]: Drug uptake in human neonate CSF after 25 hrs by HPLC. The format is ADME, organism-based, Cerebrospinal fluid.
Data set [2] in a line: Cmin in human neonate serum after 25 hrs by fluorescence polarization immunoassay. Format: ADME. To be noted: read-out: Cmin.
A short description of data set [3]: Cmax in human neonate serum after 25 hrs by fluorescence polarization immunoassay. The format is ADME, organism-based.
A short description of data set [4]: Drug uptake in human adult CSF at 75 mg, im up to 8.5 hrs by HPLC. The format is ADME, organism-based, Cerebrospinal fluid. Also on record: dose 75 mg, route intramuscular.
A short description of data set [5]: Cmax in human neonate at 10 mg/kg, iv by HPLC. The format is ADME, organism-based. Further details: dose 10 mg/kg, route intravenous. The settings on record: in vivo.

Turning to `NCC[C@H](O)C(=O)N[C@@H]1C[C@H](N)[C@@H](O[C@H]2O[C@H](CN)[C@@H](O)[C@H](O)[C@H]2O)[C@H](O)[C@H]1O[C@H]1O[C@H](CO)[C@@H](O)[C@H](N)[C@H]1O` [AMIKACIN], the Cmax in data set [1] was 1.08 µg/mL; in data set [3], 35.7 µg/mL; in data set [4], less than 0.5 µg/mL; in data set [5], less than 0.2 µg/mL. In addition, the concentration at 25 h in data set [2] worked out at 3.8 µg/mL.
